Experimental data as given in patent US20060135422A1, “Use of angiotensin receptor blockers (ARBs) to treat diseases associated with excess ACE” (priority 2003, published 2006).
“Also recorded” adds a separate entry of the source. Where two headings read alike, the source gives them in different places.

Experiments:
[1] = molecular target: tACE (Homo sapiens, UniProt P12821); settings: cited from earlier work
[2] = cited from earlier work
[3] = molecular target: T1, ACE (Homo sapiens, UniProt P12821); settings: binding affinity, from [27]; cited from earlier work
T1 sequence (P12821 30-1306): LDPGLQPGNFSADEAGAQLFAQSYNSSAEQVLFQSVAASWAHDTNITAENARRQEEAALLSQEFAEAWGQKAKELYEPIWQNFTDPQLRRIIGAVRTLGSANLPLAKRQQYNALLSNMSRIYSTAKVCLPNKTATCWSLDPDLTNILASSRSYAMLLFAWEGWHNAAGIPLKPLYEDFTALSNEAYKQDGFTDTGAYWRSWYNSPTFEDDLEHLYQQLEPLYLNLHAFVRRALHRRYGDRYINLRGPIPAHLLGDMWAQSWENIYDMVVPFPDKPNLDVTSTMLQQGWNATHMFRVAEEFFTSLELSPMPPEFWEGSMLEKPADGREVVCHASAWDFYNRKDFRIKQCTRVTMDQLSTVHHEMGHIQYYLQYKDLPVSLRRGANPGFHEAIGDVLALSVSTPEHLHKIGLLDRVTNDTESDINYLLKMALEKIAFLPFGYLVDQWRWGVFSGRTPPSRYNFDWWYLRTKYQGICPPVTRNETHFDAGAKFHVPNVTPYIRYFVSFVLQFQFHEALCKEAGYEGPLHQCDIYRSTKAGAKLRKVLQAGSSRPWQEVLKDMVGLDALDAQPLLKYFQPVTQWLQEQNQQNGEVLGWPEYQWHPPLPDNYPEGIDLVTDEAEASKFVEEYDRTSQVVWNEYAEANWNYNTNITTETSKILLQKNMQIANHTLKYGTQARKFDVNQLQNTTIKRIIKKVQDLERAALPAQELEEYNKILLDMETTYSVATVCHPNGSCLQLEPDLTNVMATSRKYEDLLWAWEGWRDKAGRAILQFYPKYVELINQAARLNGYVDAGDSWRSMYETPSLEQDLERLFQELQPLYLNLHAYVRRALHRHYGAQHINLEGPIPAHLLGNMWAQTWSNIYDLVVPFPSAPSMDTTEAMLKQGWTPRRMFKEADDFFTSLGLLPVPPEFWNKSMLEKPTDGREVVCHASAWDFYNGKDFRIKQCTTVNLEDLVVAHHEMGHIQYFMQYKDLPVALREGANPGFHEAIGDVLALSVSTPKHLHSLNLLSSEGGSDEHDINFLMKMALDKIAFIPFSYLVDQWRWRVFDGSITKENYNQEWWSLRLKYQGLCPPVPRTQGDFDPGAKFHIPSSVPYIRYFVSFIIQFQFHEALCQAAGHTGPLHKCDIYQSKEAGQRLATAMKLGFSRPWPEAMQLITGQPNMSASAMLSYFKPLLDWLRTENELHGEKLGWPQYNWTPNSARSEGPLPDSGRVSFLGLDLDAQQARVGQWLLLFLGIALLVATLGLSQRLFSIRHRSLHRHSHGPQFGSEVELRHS

[4] = molecular target: T2, serum ACE (Homo sapiens, UniProt P12821); settings: cited from earlier work
T2 construct: host or cells: serum
T2 sequence (P12821 30-1232): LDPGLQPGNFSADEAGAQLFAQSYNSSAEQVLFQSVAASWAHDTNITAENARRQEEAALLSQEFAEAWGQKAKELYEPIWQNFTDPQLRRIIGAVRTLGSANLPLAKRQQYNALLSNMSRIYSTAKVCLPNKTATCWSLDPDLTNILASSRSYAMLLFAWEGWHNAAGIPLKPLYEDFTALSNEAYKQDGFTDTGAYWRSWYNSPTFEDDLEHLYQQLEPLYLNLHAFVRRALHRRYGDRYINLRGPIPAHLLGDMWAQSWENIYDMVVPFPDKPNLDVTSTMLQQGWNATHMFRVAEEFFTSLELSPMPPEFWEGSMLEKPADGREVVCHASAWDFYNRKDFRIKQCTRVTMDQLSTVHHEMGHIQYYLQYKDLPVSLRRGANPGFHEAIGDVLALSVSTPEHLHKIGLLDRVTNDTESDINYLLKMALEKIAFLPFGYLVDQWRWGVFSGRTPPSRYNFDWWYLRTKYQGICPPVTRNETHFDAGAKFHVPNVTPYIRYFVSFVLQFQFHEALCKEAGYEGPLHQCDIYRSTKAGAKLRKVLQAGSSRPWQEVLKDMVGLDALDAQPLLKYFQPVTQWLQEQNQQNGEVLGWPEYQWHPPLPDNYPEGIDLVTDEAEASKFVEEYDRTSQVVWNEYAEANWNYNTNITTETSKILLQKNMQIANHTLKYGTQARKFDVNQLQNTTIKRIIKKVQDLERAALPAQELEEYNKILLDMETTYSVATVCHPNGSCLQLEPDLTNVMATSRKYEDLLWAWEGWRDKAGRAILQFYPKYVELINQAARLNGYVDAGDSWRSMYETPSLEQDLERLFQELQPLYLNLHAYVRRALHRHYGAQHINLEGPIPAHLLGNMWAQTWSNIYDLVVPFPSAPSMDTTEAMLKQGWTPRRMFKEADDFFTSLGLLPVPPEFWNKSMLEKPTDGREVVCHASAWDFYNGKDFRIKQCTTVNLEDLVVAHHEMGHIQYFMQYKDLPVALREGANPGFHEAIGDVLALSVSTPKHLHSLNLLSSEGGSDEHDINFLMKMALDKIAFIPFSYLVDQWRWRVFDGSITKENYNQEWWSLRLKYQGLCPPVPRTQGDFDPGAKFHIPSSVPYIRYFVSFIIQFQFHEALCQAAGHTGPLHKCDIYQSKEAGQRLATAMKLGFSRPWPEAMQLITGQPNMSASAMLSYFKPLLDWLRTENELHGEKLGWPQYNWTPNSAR

[5] = tested on: West Nile virus encephalitis; assay: case series: West Nile virus encephalitis treated with angiotensin II receptor blockade; format: in vivo, human; settings: for clinical outcome: patient 8, person with chronic lymphocytic leukemia, intravenous enalapril then losartan 50 mg daily
Procedure: Table 2. […] A person with past history of tremors was admitted with fever, stiff neck, severe confusion, and gross tremors to a hospital in Omaha, Nebr. one night. Their serum was positive for IgM reactive to West Nile virus. They were begun on olmesartan 20 mg daily. […] They were discharged home on olmesartan 20 mg daily. • 2. A person with hypertension treated with a beta-blocker/thiazide combination drug, was admitted to a hospital in Omaha, Nebr. with right leg paralysis and paresthesias and weakness in their left leg. Their serum was positive for IgM reactive to West Nile virus. They were begun on losartan 50 mg daily. […] A person with a history of seizures was admitted one night to a hospital in Omaha, Nebr. with a fever and a grand mal seizure. They had been taking olmesartan 20 mg daily for mild hypertension. Their serum was positive for IgM reactive to West Nile virus. […] Their usual dose of olmesartan 20 mg daily was resumed thereafter. […] A person was admitted with fever, stiff neck, and severe confusion to a hospital in Omaha, Nebr. Their serum was positive for IgM antibodies reactive to West Nile virus. They were begun on losartan 50 mg daily. […] A person was admitted with fever, stiff neck, and severe confusion to a hospital in Omaha, Nebr. Their serum was positive for IgM antibodies reactive to West Nile virus. They were begun on losartan 50 mg daily. […] A person was admitted with fever, stiff neck, and severe confusion to a hospital in Pueblo, CO. Their serum was positive for IgM antibodies reactive to West Nile virus. They were begun on losartan 50 mg daily. […] A person with chronic lymphocytic leukemia was admitted with fever and obtundation to a hospital in Pueblo, CO. Their serum was positive by EIA for West Nile virus antibodies. […] Head CT and MRI scans were negative.

[6] = molecular target: T1, ACE; settings: cited from earlier work
[7] = tested on: chronic renal failure; settings: clinical comparison, from [20]; cited from earlier work
[8] = tested on: psoriasis; format: in vivo, human; settings: one person with type II diabetes, quinapril 200 mg/day (2 mg/kg/day); could stop daily methotrexate 75 mg
[9] = tested on: unresectable pancreatic cancer; assay: case report: unresectable pancreatic cancer, quinapril added; format: in vivo, human; settings: person, 5-FU and Naitrexone since February 2002, quinapril (60 mg) since November 2002; median survival of similar patients less than 4 months
[10] = tested on: pulmonary hypertension; settings: clinical comparison, from [20,22]; cited from earlier work
[11] = tested on: alopecia areata; assay: case reports: alopecia areata treated with an ARB; format: in vivo, human
[12] = format: in vivo, human; settings: 40 mg po qhs; reduced from 98 mm Hg
Procedure: Because many patients with an autoimmune disease such as alopecia greata, psoriasis, rheumatoid arthritis, multiple sclerosis, etc. are normotensive or even relatively hypotensive, an ACE inhibitor may not be the best choice for them. They might not be able to tolerate a sufficiently high dose of an ACE inhibitor, certainly any dose approaching 2 mg/kg/day. Instead, an AT1 receptor blocker appears to be effective at doses which cause minimal blood pressure (BP) reduction. […]

[13] = pH 7.4, active moiety, calculated from [23]
[14] = pH 7.4, active moiety, calculated from [24]
[15] = patient 2, losartan 50 mg daily

Sequence of tACE (P12821 other isoform, or with tags, fused parts or gaps): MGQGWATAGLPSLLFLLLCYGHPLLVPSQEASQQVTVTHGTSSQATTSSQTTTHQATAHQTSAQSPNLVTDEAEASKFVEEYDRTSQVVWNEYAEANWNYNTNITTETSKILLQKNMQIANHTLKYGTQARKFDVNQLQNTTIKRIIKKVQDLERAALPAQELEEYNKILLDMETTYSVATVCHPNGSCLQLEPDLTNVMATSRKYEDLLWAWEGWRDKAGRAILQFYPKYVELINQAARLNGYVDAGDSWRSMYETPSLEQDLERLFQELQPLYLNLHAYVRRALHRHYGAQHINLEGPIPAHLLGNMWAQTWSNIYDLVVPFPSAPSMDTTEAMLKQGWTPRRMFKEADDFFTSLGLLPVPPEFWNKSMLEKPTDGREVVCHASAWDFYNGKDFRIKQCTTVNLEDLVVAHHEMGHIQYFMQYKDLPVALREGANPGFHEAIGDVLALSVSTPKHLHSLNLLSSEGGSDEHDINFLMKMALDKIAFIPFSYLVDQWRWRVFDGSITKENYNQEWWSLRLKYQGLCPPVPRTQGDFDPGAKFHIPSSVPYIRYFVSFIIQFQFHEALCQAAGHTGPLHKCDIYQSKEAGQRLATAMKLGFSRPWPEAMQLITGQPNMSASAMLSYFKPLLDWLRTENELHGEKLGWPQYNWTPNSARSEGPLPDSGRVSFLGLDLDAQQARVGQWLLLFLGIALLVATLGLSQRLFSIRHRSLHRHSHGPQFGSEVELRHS

## O[C@H](CS)[C@H](O)CS (racemic) [dithiothreitol]
[1]
  inhibition of tACE's activity: 78%

## O=C(O)CN1C(=O)[C@@H](N[C@@H](CCc2ccccc2)C(=O)O)CCc2ccccc21 [Benazeprilat]
[2]; [13]
  P(octanol:water): 3.0

## C[C@H](CS)C(=O)N1CCC[C@H]1C(=O)O [Captopril]
[2]; [13]
  P(octanol:water): 0.01
[2]; [14]
  P(octanol:water): 0.004

## NCCCC[C@H](OP(=O)(O)CCCCc1ccccc1)C(=O)N1CCC[C@H]1C(=O)O [Ceronapril]
[2]; [14]
  P(octanol:water): <0.001

## O=C(O)[C@H](CCc1ccccc1)N[C@H]1CCCN2CCC[C@@H](C(=O)O)N2C1=O [Cilazaprilat]
[2]; [13]
  P(octanol:water): 1.7

## O=C(O)[C@@H]1C[C@@H](C2CCCCC2)CN1C(=O)CP(=O)(O)CCCCc1ccccc1 [Fosinoprilat]
[2]; [14]
  P(octanol:water): 0.33

## CCC[C@H](N[C@@H](C)C(=O)N1[C@H](C(=O)O)C[C@@H]2CCCC[C@@H]21)C(=O)O [Perindoprilat]
[2]; [13]
  P(octanol:water): 0.44

## C[C@H](N[C@@H](CCc1ccccc1)C(=O)O)C(=O)N1Cc2ccccc2C[C@H]1C(=O)O [Quinaprilat]
[2]; pH 7.4
  P(octanol:water): 6.6

## C[C@H](N[C@@H](CCc1ccccc1)C(=O)O)C(=O)N1[C@H](C(=O)O)C[C@@H]2CCC[C@@H]21 [Ramiprilat]
[3]
  IC50: 0.67 nM
[2]; [13]
  P(octanol:water): 2.6
[2]; [14]
  P(octanol:water): 0.011

## C[C@H](N[C@@H](CCc1ccccc1)C(=O)O)C(=O)N1[C@H](C(=O)O)C[C@H]2CCCC[C@@H]21 [Trandolaprilat]
[2]; [13]
  P(octanol:water): 10.47

## C[C@H](CS)C(=O)N1C[C@@H](Sc2ccccc2)C[C@H]1C(=O)O [Zofenoprilat]
[2]; [14]
  P(octanol:water): 0.22

## CCOC(=O)[C@H](CCc1ccccc1)N[C@@H](C)C(=O)N1CCC[C@H]1C(=O)O [enalapril]
[4]
  inhibition of serum ACE activity: about 50%
[5]
  clinical outcome: remained in coma
[6]
  off time: 4 h

## CCCCc1nc(Cl)c(CO)n1Cc1ccc(-c2ccccc2-c2nn[nH]n2)cc1 [losartan]
[5]; [15]
  right leg paralysis: no change
  time until paresthesias and weakness in left leg stopped: 1 to 2 days
[5]; patient 3, losartan 50 mg twice in first 24 hr, usual olmesartan 20 mg daily resumed thereafter
  time to full recovery: ≤ 12 h
[5]; patient 4, losartan 50 mg daily
  time until meningoencephalitis disappeared: ≤ 48 h
[5]; patient 5, losartan 50 mg daily
  time until meningoencephalitis disappeared: ≤ 48 h
[5]; patient 6, losartan 50 mg daily
  time until meningoencephalitis disappeared: ≤ 24 h
[5]; patient 7, one month after meningoencephalitis, losartan 50 mg daily
  time until disappearance of residual weakness and fatigue: ≤ 24 h
[5]
  clinical outcome: remained in coma

## CCOC(=O)[C@H](CCc1ccccc1)N[C@@H](C)C(=O)N1Cc2ccccc2C[C@H]1C(=O)O [quinapril]
[7]
  effectiveness at delaying the progression of chronic renal failure: more effective than ramipril
[8]
  response of psoriasis: put the patient's psoriasis into remission; also recorded: responded dramatically
[6]
  off time: 24 h
[9]
  survival: still alive in November, 2003

## CCOC(=O)[C@H](CCc1ccccc1)N[C@@H](C)C(=O)N1[C@H](C(=O)O)C[C@@H]2CCC[C@@H]21 [ramipril]
[10]
  effectiveness at lowering pulmonary hypertension: more effective at lowering pulmonary hypertension than enlapril
[4]; from [20]
  inhibition of serum ACE activity: ~100%
[6]; from [28-30]
  off time: 24 h

## CCCCC(=O)N(Cc1ccc(-c2ccccc2-c2nnn[nH]2)cc1)[C@H](C(=O)O)C(C)C [valsartan]
[11]; ARB stopped after 1 week, same patient
  time until scalp hair loss resumed after stopping the ARB: 3 to 4 days
[11]; active alopecia areata, child, 40 mg po qhs, n=1
  time until hair loss stopped after starting the ARB: ≤ 36 h
[11]; more chronic form of alopecia areata, n=1
  time for valsartan to have an effect: more than 5 days
[12]
  systolic BP on treatment: 90 mm Hg
